Columns and labels:
ncp BVDV strain Pe515 = test: Real time RT-PCR of secreted viral RNA in supernatants of persistently infected MDBK cells (Example 3); type: cell-based, bovine viral diarrhea virus; settings: iminosugar added to IFN/RBV from the beginning of treatment
Method: Madin-Darby bovine kidney cells (MDBK) MDBK cells were seeded at 1×10^6 cells/35 mm dish, infected with non-cytopathic (ncp) BVDV strain Pe515 (National Animal Disease Laboratory) at a MOI of 0.1, and passaged into fresh RPMI 1640 medium containing 10% (v/v) Foetal calf serum using a 1:8 dilution every three days. After achieving a stable infection IFN (1000 IU) and RBV (1 μM) (Sigma-Aldrich) were added to the cells; this passage was denoted passage 0 (P0). Simultaneously, a non-drug treated positive control sample and mock-infected (M.I.) negative controls cultured in the presence and absence of IFN and RBV (1000 IU and 1 μM, respectively) were prepared. Cells continued to be passaged every 3 days into fresh medium containing IFN and RBV. […] At each passage the combined supernatants of cultured cells from duplicate wells were harvested (to account for biological variation), levels of secreted viral RNA measured (by real time RT-PCR using technical duplicates) and the infectivity of the supernatant determined using an immunofluorescence (IF) based infectivity assay.
At each passage, a 500 μl aliquot of each supernatant harvested from the cultured cells was concentrated by ultrafiltration (10 kDa molecular weight cut off Centricon filter; Millipore, Mass., USA) to 140 μl. […] Real time RT-PCR was carried out using the Qiagen Quantitect RT-PCR kit. […]

cytopathic BVDV = settings: higher NB-DNJ concentrations in combination with IFN; cited from earlier work

For `CCCCN1C[C@H](O)[C@@H](O)[C@H](O)[C@H]1CO` [NB-DNJ, N-butyl deoxynojirimycin], the “additional effect on decrease of viral RNA levels (synergy)” value (ncp BVDV strain Pe515) is given as “no synergy was observed” and the “antiviral effect of the combination” value (cytopathic BVDV) is given as “greater than additive antiviral effect”.

From patent publication US20130195798A1, “COMBINATION THERAPY FOR TREATMENT OF VIRAL INFECTIONS” (The Chancellors, Masters and Scholars of the University of …, priority 2006, published 2013)
